Where a name gives a salt, the structure may show the parent alone.

Experiment [1] relates to Human immunodeficiency virus 1. The experiment is described as follows: Compound potency to achieve protection of MT-4 cells from HIV-1 cytopathicity. The format is functional, organism-based, MT4.
Experiment [2] has as its system MT4. The experiment is described as follows: Compound was tested for potency to achieve protection of MT-4 cells from LAI strain of HIV-1 virus. The format is functional, cell-based. The conditions noted are these: Homo sapiens.
Experiment [3] concerns MT4. The experiment is described as follows: Compound was tested for potency to achieve protection of MT-4 cells from 100I strain of HIV-1 virus. The format is functional, cell-based. The conditions noted are these: Homo sapiens.
Experiment [4] deals with MT4. The experiment is described as follows: Compound was tested for potency to achieve protection of MT-4 cells from 101E strain of HIV-1 virus. Format: functional, cell-based. As to conditions: Homo sapiens.
Experiment [5] deals with MT4. The experiment is described as follows: Compound was tested for potency to achieve protection of MT-4 cells from 103N strain of HIV-1 virus. Format: functional, cell-based. As to conditions: Homo sapiens.
The subject of experiment [6] is MT4. The experiment is described as follows: Compound was tested for potency to achieve protection of MT-4 cells from 106A strain of HIV-1 virus. Format: functional, cell-based. As to conditions: Homo sapiens.
Experiment [7] has as its system MT4. The experiment is described as follows: Compound was tested for potency to achieve protection of MT-4 cells from 181C strain of HIV-1 virus. Format: functional, cell-based. As to conditions: Homo sapiens.
Experiment [8] deals with MT4. Nature of the experiment: Compound was tested for potency to achieve protection of MT-4 cells from 188L strain of HIV-1 virus. The conditions noted are these: Homo sapiens. Format: functional, cell-based.
Experiment [9] deals with MT4. The experiment is described as follows: Compound was tested for potency to achieve protection of MT-4 cells from 190A strain of HIV-1 virus. The format is functional, cell-based. The conditions noted are these: Homo sapiens.
Where [10] appears, read: Human immunodeficiency virus 1, MT4.

Usually IC50 stands for the concentration needed to halve the response being measured. For `N=C(Cc1c(Cl)cccc1Cl)NC(=S)Nc1ccc(Cl)cc1`, inhibition in [1] (setting [10]) was half-maximal at 13 nM (IC50).

Turning to `N#Cc1ccc(NC(=N)NC(=N)Cc2c(Cl)cccc2Cl)cc1`, in experiment [1] (setting [10]), the IC50 came out at 7940 nM. On to `N#Cc1ccc(NC(=S)NC(=N)Cc2c(Cl)cccc2Cl)cc1`, for which the IC50 was 3 nM in experiment [1] (setting [10]); 2.5 nM in experiment [1] (mt4); 3 nM in [2]; 513 nM in experiment [3]; 19 nM in experiment [4]; 589 nM in [5]. Moreover, the IC50 is 382 nM in experiment [6], 511 nM in experiment [7], 318 nM in experiment [8] and 2 nM in [9]. Molecule `N#Cc1ccc(NC(=S)NC(=N)C2(c3c(Cl)cccc3Cl)CC2)cc1` gave an IC50 in experiment [1] (setting [10]) of 1480 nM. The same measure, in the same setting: in the case of `C/N=C(/Cc1c(Cl)cccc1Cl)NC(=O)Nc1ccc(C#N)cc1` it was 214 nM. The molecule `N#Cc1ccc(NC(=S)NC(=N)c2c(Cl)cccc2Cl)cc1` returned an IC50 in [1] (setting [10]) of 22900 nM. Same read-out and setting: in the case of `CN/C(Cc1c(Cl)cccc1Cl)=N\C(S)=N\c1ccc(C#N)cc1` it was 3.9 nM.

For `N#Cc1ccc(N/C(S)=N/C(=N)Cc2c(F)cccc2F)cc1`, half-maximal inhibition in experiment [1] (setting [10]) (IC50) required 6 nM. The same measure, in the same setting: as for `N=C(Cc1c(Cl)cccc1Cl)NC(=S)NCc1ccc(Cl)cc1`, the figure is 692 nM; as for `Cc1ccccc1CC(=N)/N=C(\S)Nc1ccc(C#N)cc1`, 26 nM; as for `CN(/C(S)=N/C(=N)Cc1c(Cl)cccc1Cl)c1ccc(C#N)cc1`, 58900 nM. Same read-out and setting: as for `NC(=O)C(Nc1ccc(Cl)cc1)c1c(Cl)cccc1Cl` (stereo not given), the figure is greater than 160000 nM. The same measure, in the same setting: as for `COc1ccccc1CC(=N)/N=C(\S)Nc1ccc(C#N)cc1`, the figure is 30 nM; as for `N#Cc1ccc(NC(=S)NC(=N)Cc2ccccc2)cc1`, 380 nM.

Consider `N#Cc1ccc(NC(=S)NC(=N)Cc2cccc(Cl)c2)cc1`, for which, in experiment [1] (setting [10]), the concentration for half-maximal inhibition (IC50) was 68 nM. Same read-out and setting: as for `N#Cc1ccc(NC(=S)NC(=N)Cc2ccc(Cl)cc2Cl)cc1`, the figure is 7 nM; as for `N=C(Cc1c(Cl)cccc1Cl)NC(=S)Nc1ccc(Cl)cc1Cl`, 347 nM; as for `NC(=O)C(NC(=O)c1ccccc1[N+](=O)[O-])c1c(Cl)cccc1Cl` (stereo not given), greater than 79000 nM.

In the case of `NC(=O)C(Nc1ccccc1[N+](=O)[O-])c1c(Cl)cccc1Cl` (stereo not given), in experiment [1] (setting [10]), the IC50 came out at 100 nM. The same measure, in the same setting: as for `CC(C(=N)/N=C(\S)Nc1ccc(C#N)cc1)c1c(Cl)cccc1Cl` (stereo not given), the figure is 158 nM. Still for that read-out and setting: in the case of `N#Cc1ccc(NC(=S)/N=C(/Cc2c(Cl)cccc2Cl)Nc2ccccc2)cc1` it was 1320 nM; in that of `NC(=O)C(NC(=O)Nc1ccccc1[N+](=O)[O-])c1c(Cl)cccc1Cl` (stereo not given), greater than 320000 nM; in that of `N#Cc1ccc(NC(=S)NC(=N)Cc2ccccc2Cl)cc1`, 14 nM.

Consider `N#Cc1ccc(NC(=S)NC(=N)CCc2c(Cl)cccc2Cl)cc1`, for which, in experiment [1] (setting [10]), it took 525 nM to reach half-maximal inhibition (IC50). Same read-out and setting: in the case of `N=C(Cc1c(Cl)cccc1Cl)NC(=S)Nc1ccccc1` it was 123 nM. Still for that read-out and setting: in the case of `N=C(Cc1c(Cl)cccc1Cl)NC(=S)Nc1c(Cl)cc(Cl)cc1Cl` it was 42700 nM.

Molecule `CCN/C(Cc1c(Cl)cccc1Cl)=N\C(S)=N\c1ccc(C#N)cc1` registered an IC50 in [1] (setting [10]) of 158 nM. The same measure, in the same setting: in the case of `N#Cc1ccc(NC(=O)NC(=N)Cc2c(Cl)cccc2Cl)cc1` it was 15 nM; in that of `N=C(Cc1c(Cl)cccc1Cl)NC(=S)NCCc1ccc(Cl)cc1`, 1620 nM. The same measure, in the same setting: in the case of `N#Cc1ccc(NC(=S)NS(=O)(=O)Cc2c(Cl)cccc2Cl)cc1` it was 100000 nM. The same measure, in the same setting: as for `N#Cc1ccccc1NC(=S)NC(=N)Cc1c(Cl)cccc1Cl`, the figure is 631000 nM; as for `NC(=O)C(/N=C(\S)Nc1ccc(Cl)cc1)c1c(Cl)cccc1Cl` (stereo not given), 160 nM; as for `N#Cc1cccc(NC(=S)NC(=N)Cc2c(Cl)cccc2Cl)c1`, 126 nM. Molecule `NC(=O)C(/N=C(\S)Nc1ccccc1Cl)c1c(Cl)cccc1Cl` (stereo not given) returned an IC50 in experiment [1] (setting [10]) greater than 60000 nM. The same measure, in the same setting: as for `N#Cc1ccc(NC(=S)NC(=O)Cc2c(Cl)cccc2Cl)cc1`, the figure is 631000 nM. Regarding `NC(=O)C(NCc1ccccc1[N+](=O)[O-])c1c(Cl)cccc1Cl` (stereo not given), in experiment [1] (setting [10]), the IC50 was greater than 250000 nM. Same read-out and setting: in the case of `NC(=O)C(Nc1ccccc1Cl)c1c(Cl)cccc1Cl` (stereo not given) it was 400 nM; in that of `N#Cc1ccc(NC(=S)NC(=N)Cc2c(Cl)ccc(Cl)c2Cl)cc1`, 5 nM. On the same count and under the same terms, in the case of `N#Cc1ccc(NC(=S)NC(=N)Cc2ccc(Cl)cc2)cc1` it was 148 nM; in that of `NC(=O)C(/N=C(\S)Nc1cccc(Cl)c1)c1c(Cl)cccc1Cl` (stereo not given), 5200 nM. On to `CC(C)Nc1cccnc1N1CCN(C(=O)c2cc3cc(NS(C)(=O)=O)ccc3[nH]2)CC1` [DELAVIRDINE MESYLATE], for which the IC50 in experiment [2] is 63 nM; in experiment [3], 2510 nM; in experiment [4] it was 158 nM; in experiment [5], 2510 nM; in [6], 1590 nM; in [7], 2000 nM. In addition, the IC50 came to 1260 nM in experiment [8] and 63 nM in [9]. With `CC(=O)c1ccc(C)cc1NC(C(N)=O)c1c(Cl)cccc1Cl` (stereo not given) [LOVIRIDE], the IC50 was found to be 50 nM in experiment [2]; 50 nM in experiment [3]; 63 nM in experiment [4]; 1260 nM in experiment [5]; 1000 nM in experiment [6]; 15800 nM in [7]. Further, the IC50 is 50100 nM in [8] and 2510 nM in experiment [9].

The values above are taken from ChEMBL document CHEMBL1134808, “Evolution of anti-HIV drug candidates. Part 1: From alpha-anilinophenylacetamide (alpha-APA) to imidoyl thiourea (ITU)” (Bioorg Med Chem Lett, 2001).
